The results in this text go back to patent US6642392B1 (priority 1997, dated 2003).

Where two headings read alike, the source gives them in different places.

Holding throughout (assay type): in vivo
Test [1] relates to Eiysiphe graminis f. sp. tritici. Description: Test A: wheat powdery mildew, preventive spray on wheat seedlings. To be noted: for Test A disease control rating: wheat powdery mildew; for Test A disease control rating (100 = 100% disease control, 0 = no disease control): wheat seedlings sprayed to run-off, inoculated the following day, rating relative to controls, unmarked compounds (standard test rate). In outline:
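Compounds (3% acetone, 250 ppm Trem 014) sprayed to run-off on wheat seedlings, inoculated next day with spore dust. Incubated 7 days at 20° C before disease rating, 0–100% control relative to untreated controls.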

The test system of a further test is Puccinia recondita. Description: Test B: wheat leaf rust, preventive spray on wheat seedlings. To be noted: for Test B disease control rating: wheat leaf rust; for Test B disease control rating (100 = 100% disease control, 0 = no disease control): wheat seedlings sprayed to run-off, inoculated the following day, rating relative to controls, unmarked compounds (standard test rate). In outline: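 Wheat seedlings were sprayed to run-off with compound (3% acetone, 250 ppm Trem 014), then inoculated with P. recondita spores the next day. They were held 24 h saturated at 20 °C, then 6 days at 20 °C. Ratings are 0–100% disease control versus controls.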

The test system of a further test is Pyricularia oryzae. As to conditions: for Test C disease control rating: rice blast; for Test C disease control rating (100 = 100% disease control, 0 = no disease control): rice seedlings sprayed to run-off, inoculated the following day, rating relative to controls, unmarked compounds (standard test rate).
Another test has as its system Phytophthora infestans. To be noted: for Test D disease control rating: tomato late blight; for Test D disease control rating (100 = 100% disease control, 0 = no disease control): tomato seedlings sprayed to run-off, inoculated the following day, rating relative to controls, unmarked compounds (standard test rate).
For another test, the system named is Botrytis cinerea. Description: Test E: gray mold, preventive spray on cucumber seedlings. As to conditions: for Test E disease control rating: gray mold on cucumber; for Test E disease control rating (100 = 100% disease control, 0 = no disease control): cucumber seedlings sprayed to run-off, inoculated the following day, rating relative to controls, unmarked compounds (standard test rate). The essentials: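 Compounds in 3% acetone were suspended with 250 ppm Trem 014 surfactant and sprayed to run-off on cucumber seedlings. B. cinerea spores were inoculated next day, then 48 h saturated humidity at 20° C and 5 days at 20° C. Disease control rated 0–100% versus controls.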

Where [2] appears, read: 100 = 100% disease control, 0 = no control relative to controls, unmarked entries (standard test concentration).
The mark [3] stands for this setting: 100 = 100% disease control, 0 = no control, unmarked entries (standard test concentration).

Turning to `C#CC(C)(C)C(C#N)C(=O)NC(C)COc1cc(Cl)ccc1Cl` (mixture of isomers) [compound 212], in test [1] (setting [2]), the “Test A disease control rating” value stood at 0%. In addition, the “Test B disease control rating” value with Puccinia recondita (setting [3]) came to 0%. For the same compound, in the test with Pyricularia oryzae (setting [3]), the “Test C disease control rating” value is 100%. Also, the “Test D disease control rating” value with Phytophthora infestans (setting [3]) is 23%. Besides, in the test on Botrytis cinerea (setting [3]), the “Test E disease control rating” value came to 0%.
For the compound `CC(COc1cc(F)ccc1OC(F)F)NC(=O)C(C#N)C(C)(C)C` (mixture of isomers) [compound 292], the “Test A disease control rating (100 = 100% disease control, 0 = no disease control)” value in test [1] is listed as 0%. Besides, the “Test B disease control rating (100 = 100% disease control, 0 = no disease control)” value with Puccinia recondita came to 0%. The “Test C disease control rating (100 = 100% disease control, 0 = no disease control)” value in the test on Pyricularia oryzae worked out at 99%. Besides, the “Test D disease control rating (100 = 100% disease control, 0 = no disease control)” value with Phytophthora infestans was 46%. The “Test E disease control rating (100 = 100% disease control, 0 = no disease control)” value in the test on Botrytis cinerea worked out at 0%.
Consider `CCC1(C(=O)NC(C)COc2cccc(F)c2C#N)C(C)C1(Cl)Cl` (mixture of isomers) [compound 130], for which the “Test A disease control rating” value in test [1] (setting [2]) is listed as 0%. In addition, the “Test B disease control rating” value with Puccinia recondita (setting [3]) amounted to 0%. For the same compound, in the test with Pyricularia oryzae (setting [3]), the “Test C disease control rating” value was 32%. Further, the “Test D disease control rating” value in the test with Phytophthora infestans (setting [3]) is on record as 2%. Moreover, the “Test E disease control rating” value in the test on Botrytis cinerea (setting [3]) is 0%.
In the case of `C=CC(C)(C)C(C#N)C(=O)N[C@H](C)COc1cc(F)ccc1Cl` (single isomer, unassigned) [192b], the “Test A disease control rating” value in test [1] (setting [2]) is given as 0%. For the same compound, the “Test B disease control rating” value in the test with Puccinia recondita (setting [3]) amounted to 0%. The “Test C disease control rating” value with Pyricularia oryzae (setting [3]) is 100%. The “Test D disease control rating” value in the test on Phytophthora infestans (setting [3]) stood at 0%. The “Test E disease control rating” value with Botrytis cinerea (setting [3]) was 0%.
For `CC(COc1ccccc1F)NC(=O)C(C#N)C(C)C(C)(C)C` (mixture of isomers) [compound 57], the “Test A disease control rating” value in test [1] (tested at 40 ppm) was found to be 91%. Besides, the “Test B disease control rating” value in the test on Puccinia recondita (tested at 40 ppm) turned out to be 0%. For the same compound, in the test on Pyricularia oryzae (tested at 40 ppm), the “Test C disease control rating” value was 85%. Moreover, the “Test D disease control rating” value in the test on Phytophthora infestans (tested at 40 ppm) came out at 0%. The “Test E disease control rating” value in the test with Botrytis cinerea (tested at 40 ppm) stood at 0%.
In the case of `C[C@H](COc1cc(Cl)c(Cl)cc1Cl)NC(=O)C(C#N)C(C)(C)C` (single isomer, unassigned) [174a], the “Test A disease control rating” value in test [1] (setting [2]) is 0%. The “Test B disease control rating” value in the test on Puccinia recondita (setting [3]) was 0%. Besides, the “Test C disease control rating” value with Pyricularia oryzae (setting [3]) is 31%. In addition, the “Test D disease control rating” value with Phytophthora infestans (setting [3]) was determined as 54%. The “Test E disease control rating” value with Botrytis cinerea (setting [3]) is on record as 0%.
As to `C[C@H](COc1ccccc1Br)NC(=O)C(C#N)C(C)(C)C` (single isomer, unassigned) [8b], in test [1] (setting [2]), the “Test A disease control rating” value worked out at 37%. Besides, in the test on Puccinia recondita (setting [3]), the “Test B disease control rating” value is listed as 0%. The “Test C disease control rating” value with Pyricularia oryzae (setting [3]) is 100%. In addition, in the test with Phytophthora infestans (setting [3]), the “Test D disease control rating” value amounted to 89%. For the same compound, in the test on Botrytis cinerea (setting [3]), the “Test E disease control rating” value is 47%.
As for `C=CCc1ccccc1OCC(C)NC(=O)C1(C)CC1(Cl)Cl` (mixture of isomers) [compound 314], in test [1], the “Test A disease control rating (100 = 100% disease control, 0 = no disease control)” value was 0%. Further, the “Test B disease control rating (100 = 100% disease control, 0 = no disease control)” value with Puccinia recondita was found to be 0%. Besides, the “Test C disease control rating (100 = 100% disease control, 0 = no disease control)” value with Pyricularia oryzae is recorded as 72%. Further, the “Test D disease control rating (100 = 100% disease control, 0 = no disease control)” value in the test on Phytophthora infestans turned out to be 0%. Besides, the “Test E disease control rating (100 = 100% disease control, 0 = no disease control)” value in the test on Botrytis cinerea was determined as 0%.
As to `CCC(=CCNC(=O)C1(CC)C(C)C1(Cl)Cl)c1ccccc1` (stereo not drawn) [compound 269], the “Test A disease control rating (100 = 100% disease control, 0 = no disease control)” value in test [1] came to 98%. Also, in the test with Puccinia recondita, the “Test B disease control rating (100 = 100% disease control, 0 = no disease control)” value came out at 0%. Besides, the “Test C disease control rating (100 = 100% disease control, 0 = no disease control)” value in the test on Pyricularia oryzae amounted to 94%. In addition, in the test on Phytophthora infestans, the “Test D disease control rating (100 = 100% disease control, 0 = no disease control)” value came to 74%. In the test with Botrytis cinerea, the “Test E disease control rating (100 = 100% disease control, 0 = no disease control)” value worked out at 0%.
Consider `CC(C)(C)C(C#N)C(=O)NC/C=C/c1ccccc1Cl` (racemic) [compound 179], for which, in test [1] (setting [2]), the “Test A disease control rating” value is listed as 35%. Further, in the test on Puccinia recondita (setting [3]), the “Test B disease control rating” value was 0%. Moreover, the “Test C disease control rating” value in the test with Pyricularia oryzae (setting [3]) is recorded as 74%. Further, the “Test D disease control rating” value in the test with Phytophthora infestans (setting [3]) is reported as 23%. In addition, the “Test E disease control rating” value with Botrytis cinerea (setting [3]) is reported as 58%.
Consider `CCC1(C(=O)NC(C)COc2cc(C)ccc2Cl)C(C)C1(Cl)Cl` (stereo not drawn) [compound 127], for which the “Test A disease control rating” value in test [1] (tested at 40 ppm) worked out at 0%. In the test with Puccinia recondita (tested at 40 ppm), the “Test B disease control rating” value is reported as 0%. Besides, the “Test C disease control rating” value in the test with Pyricularia oryzae (tested at 40 ppm) is on record as 94%. The “Test D disease control rating” value in the test with Phytophthora infestans (tested at 40 ppm) came out at 19%. In the test on Botrytis cinerea (tested at 40 ppm), the “Test E disease control rating” value stood at 0%.
`CC(COc1ccccc1I)NC(=O)C(C#N)C(C)(C)C` (mixture of isomers) [11b]: in test [1] (setting [2]), the “Test A disease control rating” value was found to be 77%. Further, the “Test B disease control rating” value in the test with Puccinia recondita (setting [3]) is 85%. Also, the “Test C disease control rating” value in the test with Pyricularia oryzae (setting [3]) is given as 99%. In addition, the “Test D disease control rating” value in the test on Phytophthora infestans (setting [3]) is reported as 23%. In addition, the “Test E disease control rating” value in the test with Botrytis cinerea (setting [3]) was 0%.
As to `CCC1(C(=O)NC(C)COc2c(Cl)cc(F)cc2Cl)C(C)C1(Cl)Cl` (stereo not drawn) [compound 251], the “Test A disease control rating (100 = 100% disease control, 0 = no disease control)” value in test [1] was 0%. Besides, the “Test B disease control rating (100 = 100% disease control, 0 = no disease control)” value in the test on Puccinia recondita amounted to 0%. Moreover, the “Test C disease control rating (100 = 100% disease control, 0 = no disease control)” value in the test with Pyricularia oryzae was 94%. For the same compound, the “Test D disease control rating (100 = 100% disease control, 0 = no disease control)” value in the test with Phytophthora infestans came to 0%. Further, the “Test E disease control rating (100 = 100% disease control, 0 = no disease control)” value in the test with Botrytis cinerea was 0%.
Turning to `CCC1(C(=O)NCCCn2c(Cl)cc(Cl)c2Cl)C(C)C1(Cl)Cl` (stereo not drawn) [compound 148], the “Test A disease control rating” value in test [1] (setting [2]) is reported as 0%. Besides, the “Test B disease control rating” value with Puccinia recondita (setting [3]) was 0%. The “Test C disease control rating” value in the test with Pyricularia oryzae (setting [3]) is reported as 74%. For the same compound, the “Test D disease control rating” value in the test on Phytophthora infestans (setting [3]) worked out at 0%. The “Test E disease control rating” value in the test with Botrytis cinerea (setting [3]) is on record as 0%.
`C=CC(C)(C)C(C#N)C(=O)N[C@H](C)COc1cc(Cl)ccc1Cl` (single isomer, unassigned) [215a]: the “Test A disease control rating (100 = 100% disease control, 0 = no disease control)” value in test [1] was 63%. Further, the “Test B disease control rating (100 = 100% disease control, 0 = no disease control)” value in the test on Puccinia recondita was 0%. In addition, the “Test C disease control rating (100 = 100% disease control, 0 = no disease control)” value with Pyricularia oryzae is recorded as 99%. In the test with Phytophthora infestans, the “Test D disease control rating (100 = 100% disease control, 0 = no disease control)” value is listed as 45%. Further, the “Test E disease control rating (100 = 100% disease control, 0 = no disease control)” value in the test with Botrytis cinerea was 0%.
`CCC1(C(=O)NC(C)COn2c(C#N)cc(Cl)c2Cl)C(C)C1(Cl)Cl` (mixture of isomers) [compound 139]: in test [1] (setting [2]), the “Test A disease control rating” value was 71%. Moreover, the “Test B disease control rating” value in the test with Puccinia recondita (setting [3]) worked out at 0%. In the test on Pyricularia oryzae (setting [3]), the “Test C disease control rating” value worked out at 91%. Moreover, the “Test D disease control rating” value in the test with Phytophthora infestans (setting [3]) turned out to be 0%. For the same compound, the “Test E disease control rating” value in the test on Botrytis cinerea (setting [3]) stood at 0%.
Turning to `CCc1cccc(OCC(C)NC(=O)C2(CC)C(C)C2(Cl)Cl)c1` (stereo not drawn) [compound 240], the “Test A disease control rating (100 = 100% disease control, 0 = no disease control)” value in test [1] stood at 63%. In addition, in the test with Puccinia recondita, the “Test B disease control rating (100 = 100% disease control, 0 = no disease control)” value is reported as 0%. Further, the “Test C disease control rating (100 = 100% disease control, 0 = no disease control)” value in the test on Pyricularia oryzae came to 94%. The “Test D disease control rating (100 = 100% disease control, 0 = no disease control)” value in the test with Phytophthora infestans is on record as 96%. Moreover, the “Test E disease control rating (100 = 100% disease control, 0 = no disease control)” value in the test on Botrytis cinerea was 0%.
As to `C[C@H](COc1ccc(F)c(F)c1F)NC(=O)C(C#N)C(C)(C)C` (single isomer, unassigned) [190a], the “Test A disease control rating” value in test [1] (setting [2]) was 0%. Also, the “Test B disease control rating” value in the test on Puccinia recondita (setting [3]) stood at 0%. The “Test C disease control rating” value with Pyricularia oryzae (setting [3]) amounted to 91%. Besides, the “Test D disease control rating” value in the test with Phytophthora infestans (setting [3]) was determined as 0%. Further, in the test on Botrytis cinerea (setting [3]), the “Test E disease control rating” value stood at 6%.
